In US12662513B2, “Peptidic modulators of quorum sensing in Staphylococcus epidermidis” (priority 2016, dated 2026):
pIC50: −log10 of the molar value. Bridge positions count the residues as written; N and C are the ends. Square brackets hold non-standard residues; d marks the D form. Ends that are not written are not given here. Peptide text beside a SMILES is read from it.

Columns and labels:
[1] = tested on: S. epidermidis Group-I RP62A biofilm; conditions: read-out: IC50 of biofilm growth inhibition, 24 h static, CV staining
Method: (§1) Biological reagents, strains, and general methods. All standard reagents were purchased from commercial sources and used according to enclosed instructions. The S. epidermidis fluorescence reporter strains AH3408 (Group-I), AH3567 (Group-II), and AH3409 (Group-III) were cultured in Tryptic Soy Broth (TSB, from Sigma) augmented with 10 μg/mL of erythromycin (36). The S. epidermidis wild-type strain RP62A (Group-I) was cultured in TSB (from Sigma or EMD Millipore). The S. aureus fluorescence reporter strains AH1677 (Group-I), AH430 (Group-II), AH1747 (Group-III), and AH1872 (Group-IV) were cultured in Brain Heart Infusion (BHI, from Teknova) augmented with 10 μg/mL of chloramphenicol (65). All cultures were grown at 37° C. with shaking (200 rpm) unless noted otherwise. Absorbance and fluorescence measurements were obtained using a Biotek Synergy 2 microplate reader operating Gen5 data analysis software. IC50 values and EC50 values were determined from sigmoidal curve fits using GraphPad Prism software (v. 6.0).
Crystal violet biofilm assay protocol. […] Each solution was tested in triplicate.

[2] = tested on: AgrC-III; conditions: for Activity toward Group-III at lower concentration, in words: single concentration 100 nM (or 1 μM)
Text: (§2) However, the biological significance of this agr interference remains unclear, although it has been hypothesized to potentially play a role in competition between different groups in a mixed bacteria milieu (18). […] To this end, the AIP analogs discussed above were screened in GFP reporter strains of Groups-II and -III S. epidermidis to complement the Group-I S. epidermidis data in Tables 1 and 2 (see Methods; FIGS. 7A and 7B).
as §1
(§3) Fluorescence reporter assay protocol. […] Each peptide solution was tested in triplicate. […] Plates were then incubated at 37° C. for 24 h. Fluorescence (EX 500 nm/EM 540 nm) and OD600 of each well was measured using a plate reader, and the fluorescence values were normalized to the DMSO control.
(§4) The remaining steps of the fluorescence assay were the same as above.

[3] = tested on: AgrC-II; conditions: for Activity toward Group-II at lower concentration, in words: single concentration 100 nM (or 1 μM)
Text: as §2, §1, §3, §4

[4] = target: AgrC-I receptor (Staphylococcus epidermidis, UniProt Q5HMY3); assay: cell-based; type: cell-based, S. epidermidis; conditions: for Mode/strength of activity toward AgrC-I (Group I), in words: dose response
Chain of AgrC-I receptor (Q5HMY3 entry or part of it): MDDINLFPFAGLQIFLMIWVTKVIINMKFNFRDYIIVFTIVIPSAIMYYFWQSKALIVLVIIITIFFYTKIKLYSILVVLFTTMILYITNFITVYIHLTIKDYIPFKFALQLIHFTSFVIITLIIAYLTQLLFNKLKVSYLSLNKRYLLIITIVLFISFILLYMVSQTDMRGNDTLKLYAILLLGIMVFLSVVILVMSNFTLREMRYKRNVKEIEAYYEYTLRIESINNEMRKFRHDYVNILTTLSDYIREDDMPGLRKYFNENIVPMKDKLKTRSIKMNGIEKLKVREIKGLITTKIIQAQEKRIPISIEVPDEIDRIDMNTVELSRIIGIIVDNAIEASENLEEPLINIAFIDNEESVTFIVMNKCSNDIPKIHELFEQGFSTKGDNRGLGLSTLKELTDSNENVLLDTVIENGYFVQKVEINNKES
Method: The initial set of 14 analogs (listed in Table 1) was synthesized using solid-phase peptide chemistry and purified to homogeneity using previously established HPLC methods (59). Each analog was tested for its ability to modulate the activity of the AgrC-I receptor using a wild-type S. epidermidis Group-I fluorescence reporter strain. This strain contained a reporter plasmid encoding a gfp gene fused to the P3 promoter found upstream of RNAIII (36).
as §1, §3, §4

[5] = dose response antagonism assay, FIGS. 3A/3B

CC(C)[C@H](NC(=O)[C@H](CO)NC(=O)[C@H](C)N)C(=O)N[C@H]1CSC(=O)[C@H](Cc2ccccc2)NC(=O)[C@H](Cc2ccc(O)cc2)NC(=O)[C@H](C)NC(=O)[C@H](C)NC1=O [AIP-I D1AS6A, A-S-V-(C-A-A-Y-F)] (H-ASVCAAYF; thioester 4-C) was tested. Which pIC50 [1] did it give?
Its pIC50 is 7.74.

How did the “IC50 against AgrC-III, in words” value [2, 5] turn out when C[C@H](N)C(=O)N[C@@H](CO)C(=O)N[C@@H](C)C(=O)N[C@H]1CSC(=O)[C@H](Cc2ccccc2)NC(=O)[C@H](Cc2ccc(O)cc2)NC(=O)[C@H](C)NC(=O)[C@H](C)NC1=O [AIP-I D1AS6AV3A, A-S-A-(C-A-A-Y-F)] (H-ASACAAYF; thioester 4-C) was run?
Its value is “subnanomolar to low nanomolar range”.

And the “Activity toward Group-III at lower concentration, in words” value [2]?
Its value is “strongly inhibited”.

And the “IC50 against AgrC-II, in words” value [3, 5]?
Its value is “subnanomolar to low nanomolar range”.

What about the “Activity toward Group-II at lower concentration, in words” value [3] of the same compound?
Its value is “strongly inhibited”.

CC(C)[C@H](NC(=O)[C@H](CO)NC(=O)[C@@H](N)CC(=O)O)C(=O)N[C@H]1CSC(=O)[C@@H](Cc2ccccc2)NC(=O)[C@H](Cc2ccc(O)cc2)NC(=O)[C@H](CO)NC(=O)[C@H](C)NC1=O [AIP-I D-F8, D-S-V-(C-A-S-Y-DF)] (H-DSVCASY[dF]; thioester 4-C) was tested. Which “Mode/strength of activity toward AgrC-I (Group I), in words” value (from here on “Mode/strength of activity toward AgrC-I”) [4] did it give?
The value was “maintained agonistic activity”.

How did the “Activity toward Group-I at lower concentration, in words” value ([4]; single concentration 100 nM (or 1 μM)) turn out when CC(C)[C@@H](NC(=O)[C@H](CO)NC(=O)[C@@H](N)CC(=O)O)C(=O)N[C@H]1CSC(=O)[C@H](Cc2ccccc2)NC(=O)[C@H](Cc2ccc(O)cc2)NC(=O)[C@H](CO)NC(=O)[C@H](C)NC1=O [AIP-I D-V3, D-S-DV-(C-A-S-Y-F)] (H-DS[dV]CASYF; thioester 4-C) was run?
Its value is “lost its inhibitory activity”.

What about the “Activity toward Group-III at lower concentration, in words” value [2] of the same compound?
Its value is “remained an antagonist”.

What about the “Activity toward Group-II at lower concentration, in words” value [3] of the same compound?
The value was “remained an antagonist”.

With CC(C)[C@H](NC(=O)[C@H](CO)NC(=O)[C@@H](N)CC(=O)O)C(=O)N[C@H]1CSC(=O)[C@H](Cc2ccccc2)NC(=O)[C@H](Cc2ccc(O)cc2)NC(=O)[C@H](CO)NC(=O)[C@H](C)NC1=O [AIP-I, D-S-V-(C-A-S-Y-F), reference compound] (H-DSVCASYF; thioester 4-C) as the compound, how does the pIC50 [1] read?
The pIC50 was 7.00.

How did the “Mode/strength of activity toward AgrC-I” value [4] turn out when CC(C)C[C@@H]1NC(=O)[C@H](Cc2ccc(O)cc2)NC(=O)[C@H](CC(N)=O)NC(=O)[C@H](CO)NC(=O)[C@@H](NC(=O)[C@@H]2CCCN2C(=O)[C@@H](N)CC(N)=O)CSC1=O [AIP-II 7aa, N-P-(C-S-N-Y-L)] (H-NPCSNYL; thioester 3-C) was run?
The value was “dramatic reduction in inhibitory activity”.

For CC(C)C[C@@H]1NC(=O)[C@H](Cc2ccc(O)cc2)NC(=O)[C@H](CC(N)=O)NC(=O)[C@H](CO)NC(=O)[C@@H](NC(=O)[C@@H]2CCCN2C(=O)[C@H](CC(N)=O)NC(=O)[C@H](Cc2ccc(O)cc2)NC(=O)[C@H](CCCCN)NC(=O)[C@H](CO)NC(=O)[C@H](C)NC(=O)[C@@H](N)CC(N)=O)CSC1=O [AIP-II, N-A-S-K-Y-N-P-(C-S-N-Y-L), reference compound] (H-NASKYNPCSNYL; thioester 8-C), which “Mode/strength of activity toward AgrC-I” value [4] is on record?
Its value is “inhibit”.

With CC(C)C[C@@H]1NC(=O)[C@H](Cc2ccc(O)cc2)NC(=O)[C@H](CO)NC(=O)[C@H](C)NC(=O)[C@@H](NC(=O)[C@@H]2CCCN2C(=O)[C@H](CC(N)=O)NC(=O)[C@H](Cc2ccc(O)cc2)NC(=O)[C@H](CCCCN)NC(=O)[C@H](C)NC(=O)[C@H](C)NC(=O)[C@@H](N)CC(N)=O)CSC1=O [AIP-III, N-A-A-K-Y-N-P-(C-A-S-Y-L), reference compound] (H-NAAKYNPCASYL; thioester 8-C) as the compound, how does the “Mode/strength of activity toward AgrC-I” value [4] read?
Its value is “inhibit”.

Which “Mode/strength of activity toward AgrC-I” value [4] does the source give for CC(C)C[C@@H]1NC(=O)[C@H](CO)NC(=O)[C@H](CO)NC(=O)[C@@H](NC(=O)[C@H](C)NC(=O)[C@H](CC(N)=O)NC(=O)[C@@H](NC(=O)CN)C(C)C)CSC(=O)[C@H](Cc2ccccc2)NC1=O [S. aureus AIP-II, G-V-N-A-(C-S-S-L-F), reference compound] (H-GVNACSSLF; thioester 5-C) here?
The value was “relatively strong AgrC-I antagonist”.

Which “Mode/strength of activity toward AgrC-I” value [4] does the source give for CC(=O)N[C@H]1CSC(=O)[C@H](Cc2ccccc2)NC(=O)[C@H](Cc2ccc(O)cc2)NC(=O)[C@H](CO)NC(=O)[C@H](C)NC1=O [tAIP-I, Ac-(C-A-S-Y-F)] (Ac-CASYF; thioester 1-C) here?
Its value is “weak inhibitory activity”.

For CC(=O)N[C@H]1CSC(=O)[C@H](CC(C)C)NC(=O)[C@H](Cc2ccc(O)cc2)NC(=O)[C@H](CC(N)=O)NC(=O)[C@H](CO)NC1=O [tAIP-II, Ac-(C-S-N-Y-L)] (Ac-CSNYL; thioester 1-C), which “Mode/strength of activity toward AgrC-I” value [4] is on record?
The value was “dramatic reduction in inhibitory activity”.

What about the “Activity against Group-III, in words” value ([2]; single concentration 10 μM) of the same compound?
The value was “inactive”.

For “D-S-V-(C-A-S-A-F) (DSVCASAF; bridge 4-C; also: thiolactone between Cys4 side chain and C-terminus) [AIP-I Y7A]”, which “EC50 in AgrC-I” value ([4]; activation dose response in the presence of 50 nM S. epidermidis AIP-II) is on record?
The value was “Inactive^c”.

And the “IC50 in AgrC-I” value ([4]; antagonism dose response, peptide alone, Group-I GFP reporter strain, 24 h)?
Its value is “Inactive^c”.

And the “Activity against Group-I, in words” value ([4]; single concentration 10 μM)?
Its value is “inactive”.
